Target: T1, Human OTUB1 wild-type (Homo sapiens, UniProt Q96FW1)
T1 construct: His tag (N); made in house; host or cells: E. coli BL21-CodonPlus (DE3)-RIPIL
Experiment: Covalent modification of OTUB1 (adduct formation), mass spectrometry-based assay (OTUB1 covalent binders; selected CFTR or cGAS based bivalent compounds)
Type: binding
Settings: covalent adduct formation with OTUB1 protein
Method: OTUB1 covalent binders were tested for their ability to form the covalent adduct with OTUB1 protein using a mass-spectrometry based assay.
Example 389. Assessment of the Covalent Modification of OTUB1 Protein by Selected OTUB1 Covalent Binders Using a Mass Spectrometry-Based Assay (FIG. 1)
OTUB1 protein (10 μM) was incubated with selecting compounds (2500 μM) at RT for 1 h. The adduct was qualified by mass spectrometry-based assays.
Example 398. Assessment of the Covalent Modification of OTUB1 Protein by Selected CFTR Based Bivalent Compounds Using Mass Spectrometry-Based Assay (FIG. 10)
OTUB1 protein (10 μM) was incubated with selecting bivalent compounds (2500 μM) at RT for 1 h. The adduct was qualified by mass spectrometry-based assays.
Human OTUB1 wild-type (NM_017670.3) and C23S mutation genes were optimized based on the codon preference of E. coli, synthesized and cloned into pET15b vector with a N-terminal His tag by Genscript, respectively. The plasmid was transferred to BL21-CodonPlus (DE3)-RIPIL Competent Cell (230280, Agilent Technologies) and the recombinant protein was induced expressed by 0.5 mM IPTG at 16° C. with shaking 200 rpm for 18 h. Induced cells were harvested by centrifugation and resuspended in cold lysis buffer (50 mM Tris-H—Cl pH 7.5, 150 mM NaCl, 25 mM imidazole pH 7.5, 0.01% IGEPAL, 5% Glycerol) in the presence of Pierce Protease Inhibitor tablets (PIA32963, Fisher Scientific) and 2 mM TCEP pH 7.5.
The cells were lysed by sonication, clarified by centrifugation, and the filtered supernatant loaded onto a 5 ml HisTrap HP affinity column (17524802, Cytiva) in AKTA system. The His-recombinant protein bound to column was washed using buffer A (50 mM Tris-HCl pH 7.5, 150 mM NaCl, 25 mM imidazole pH 7.5, 0.01% IGEPAL, 5% Glycerol) and eluted with buffer B (50 mM Tris-HCl pH 7.5, 150 mM NaCl, 250 mM imidazole pH 7.5, 0.01% IGEPAL, 5% Glycerol). The eluted fractions containing OTUB1 protein were concentrated and subjected to size exclusion chromatography using a 320 mL HiLoad 26/600 Superdex 200 pg column (28989336, Cytiva) under the buffer condition ([…] Tris-HCl pH 7.5, 150 mM NaCl, and 2 mM TCEP pH 7.5). The eluted fractions containing OTUB1 protein were concentrated, divided into aliquots and stored at −80° C. freezer for further usage.
Quality control of the OTUB1 proteins was performed by SDS-PAGE, Nanodrop and mass spectrometry.
Mass Spectrometry-Based Analysis of OTUB1-Covalent Ligand Adducts
To screen the covalent ligands, recombinant OTUB1 protein (10 μM) was respectively incubated with DMSO, EN523 or seven novel ligands (2500 μM) in reaction buffer (50 mM Tris-HCl pH 7.5, 150 mM NaCl, and 0.5 mM TCEP pH 7.5) for 1 h at room temperature.
Then, the total 500 μL reaction solution was exchanged and concentrated to 50 μL 50 mM ammonium bicarbonate with a 10 kDa MWCO centrifugal filter unit (UFC901024, Millipore) and diluted in MS buffer (30% ACN, 0.2% FA) to a final concentration of […]. Mass spectrometry detection was performed by an Agilent LC/MSD Time-Of-Flight (TOF) mass spectrometer (Agilent Technologies) equipped with an electrospray ion source. The data was analyzed by TOF Protein Confirmation Software. All experiments were performed in duplicate.

T1 sequence (Q96FW1 whole entry): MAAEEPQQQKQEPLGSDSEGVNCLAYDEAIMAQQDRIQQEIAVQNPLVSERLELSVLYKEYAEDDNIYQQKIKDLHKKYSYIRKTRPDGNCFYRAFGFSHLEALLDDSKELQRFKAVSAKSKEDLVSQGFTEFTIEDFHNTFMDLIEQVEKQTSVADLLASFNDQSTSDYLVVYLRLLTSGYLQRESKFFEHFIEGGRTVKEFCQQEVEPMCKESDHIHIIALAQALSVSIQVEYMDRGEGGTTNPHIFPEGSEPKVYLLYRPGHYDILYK

Row | Structure (SMILES) | % of OTUB1 modified
1 | CN(C)C(C)(C)C#CC(=O)N1CC(NC(=O)c2cc3ccccc3s2)C1 [XS224-156, N-(1-(4-(dimethylamino)-4-methylpent-2-ynoyl)azetidin-3-yl)benzo[b]thiophene-2-carboxamide] | 85%
2 | Cc1ccc(N2CCN(C(=O)/C=C/CN3CCOCC3)CC2=O)s1 [XS165-155, (E)-1-(5-methylthiophen-2-yl)-4-(4-morpholinobut-2-enoyl)piperazin-2-one] | <5%
3 | Cc1cc(N2CCN(C(=O)/C=C/CN(C)C)CC2=O)cs1 [XS175-59, (E)-4-(4-(dimethylamino)but-2-enoyl)-1-(5-methylthiophen-3-yl)piperazin-2-one] | 80%
4 | CCCC(=O)N1CC2CC(C1)N2C(=O)C#CC(C)(C)N(C)C [XS209-168, 1-(3-butyryl-3,6-diazabicyclo[3.1.1]heptan-6-yl)-4-(dimethylamino)-4-methylpent-2-yn-1-one] | 15%
5 | CN(C)C/C=C/C(=O)N1C2CCC1C(=O)N(C)C2 (stereo not shown) [XS197-4, (E)-8-(4-(dimethylamino)but-2-enoyl)-3-methyl-3,8-diazabicyclo[3.2.1]octan-2-one] | 75%
6 | CCCC(=O)N1CC2CC(C1)N2C(=O)C#CCN(C)C [XS209-166, 1-(3-butyryl-3,6-diazabicyclo[3.1.1]heptan-6-yl)-4-(dimethylamino)but-2-yn-1-one] | 90%
7 | C=CC(=O)N1C2CCC1CN(c1cccc(C)c1)C2 [XS165-33, 1-(3-(m-tolyl)-3,8-diazabicyclo[3.2.1]octan-8-yl)prop-2-en-1-one] | 5%
8 | CC(C)c1ccc(NC(=O)C2CN(C(=O)/C=C/CN(C)C)C2)s1 [XS175-143, (E)-1-(4-(dimethylamino)but-2-enoyl)-N-(5-isopropylthiophen-2-yl)azetidine-3-carboxamide] | 45%
9 | Cc1ccc(N2CCN(C(=O)/C=C/CN3CCCCC3)CC2=O)s1 [XS165-170, (E)-1-(5-methylthiophen-2-yl)-4-(4-(piperidin-1-yl)but-2-enoyl)piperazin-2-one] | 70%
10 | Cc1ccc(C(=O)N2CC3(CCN(C(=O)/C=C/CN(C)C)CC3)C2)s1 [XS185-66, (E)-4-(dimethylamino)-1-(2-(5-methylthiophene-2-carbonyl)-2,7-diazaspiro[3.5]nonan-7-yl)but-2-en-1-one] | 20%

Now from value to molecule:

Row | % of OTUB1 modified | Structure (SMILES)
11 | 20% | Cc1ocnc1C(=O)N1CC2CC(C1)N2C(=O)/C=C/CN(C)C [XS190-137, (E)-4-(dimethylamino)-1-(3-(5-methyloxazole-4-carbonyl)-3,6-diazabicyclo[3.1.1]heptan-6-yl)but-2-en-1-one]
12 | 25% | CC(=O)N1CC2(CC(C(=O)N3CC4CC(C3)N4C(=O)/C=C/CN(C)C)C2)C1 [XS197-133, (E)-1-(3-(2-acetyl-2-azaspiro[3.3]heptane-6-carbonyl)-3,6-diazabicyclo[3.1.1]heptan-6-yl)-4-(dimethylamino)but-2-en-1-one]
13 | 43% | CN(C)C/C=C/C(=O)N1C2CC1CN(C(=O)C1CCC1)C2 [XS197-38, (E)-1-(3-(cyclobutanecarbonyl)-3,6-diazabicyclo[3.1.1]heptan-6-yl)-4-(dimethylamino)but-2-en-1-one]
14 | 80% | Cc1cnc(C(=O)N2CC3CC(C2)N3C(=O)/C=C/CN(C)C)s1 [XS209-65, (E)-4-(dimethylamino)-1-(3-(5-methylthiazole-2-carbonyl)-3,6-diazabicyclo[3.1.1]heptan-6-yl)but-2-en-1-one]
15 | 15% | Cc1ccc(C(=O)N2C3CC2CN(C(=O)/C=C/CN(C)C)C3)s1 [XS185-67, (E)-4-(dimethylamino)-1-(6-(5-methylthiophene-2-carbonyl)-3,6-diazabicyclo[3.1.1]heptan-3-yl)but-2-en-1-one]
16 | 75% | CN(C)C/C=C/C(=O)N1C2CCC1C(=O)N(C1CCC1)C2 (stereo not shown) [XS197-70, (E)-3-cyclobutyl-8-(4-(dimethylamino)but-2-enoyl)-3,8-diazabicyclo[3.2.1]octan-2-one]

From patent US20260315604A1, “OTUB1 Small-Molecule Binders and OTUB1-recruiting Deubiquitinase-targeting Chimeras (DUBTACs)” (ICAHN SCHOOL OF MEDICINE AT MOUNT SINAI, priority 2023, published 2026)
